Assay results taken from patent publication EP4119135A1, “METHODS FOR REBALANCING THE INTESTINAL FLORA IN PATIENTS SUFFERING FROM PARKINSON'S DISEASE” (Luxia Scientific, priority 2021, dated 2023).
Several values for one entry are separate records, joined by “and”; a condition that tells them apart may be missing. Equal entries are not always repeated. Entries after “also recorded” stand apart in the source; their conditions may differ.

Columns and labels:
[1] = test system: Blautia; test: Spearman correlation between estimated daily nutrient intake (food questionnaire) and relative abundance of the bacterial genus (16S sequencing of faecal samples); conditions: nutrient intake vs relative abundance of Blautia, whole cohort (215 individus)
Description: (§1) Les tests statistiques suivants ont été réalisés : • Corrélations non paramétriques de Spearman entre les apports en nutriments calculés et chacune des cinq bactéries d'intérêt. • Corrélations non paramétriques de Spearman entre les fréquences de consommation des aliments du questionnaire alimentaire et chacune des cinq bactéries d'intérêt. • Régressions ordinales entre les fréquences de consommation des aliments du questionnaire alimentaire et chacune des cinq bactéries d'intérêt.
(§2) Après avoir créé leur compte personnel sur le site internet de la société de Luxia Scientific, les clients peuvent remplir de manière volontaire un questionnaire alimentaire. Ce questionnaire possède neuf sous-groupes de questions, chacun constituant une catégorie d'aliments. À l'intérieur de ces sous-groupes, une liste complète d'aliments est fournie et donne aux personnes la possibilité de choisir la fréquence à laquelle elles ont consommé chaque aliment possible au cours du dernier mois dans une portion spécifiée.
(§3) Un tableau des apports nutritionnels par portion d'aliments présents dans le questionnaire a été ensuite créé. Pour créer ce tableau, la Table de composition alimentaire française Ciqual de l'ANSES du 07/07/2020 (https://ciqual.anses.fr/) a été utilisée.
(§4) L'apport en omégas-3 a été calculé en additionnant les valeurs d'apports en acide alpha-linolénique (18:3; ALA), en acide eïcosapentaénoïque (20:5; EPA) et en acide docosahexaénoïque (22:6; DHA). L'apport en omégas-6 a été calculé en additionnant les valeurs d'apports en acide linoléique (18:2; […]) et en acide arachidonique (20:4; ARA) qui sont les deux présents dans la Table Ciqual.
(§5) À cette étape, on possède d'une part les réponses des utilisateurs volontaires pour répondre au questionnaire alimentaire, et, d'autre part, on possède les apports nutritionnels mensuel pour chaque réponse possible de chaque aliment du questionnaire. Il convient ensuite de calculer la somme de tous les apports pour chaque réponse de l'individu au questionnaire, puis de la diviser par 30 pour obtenir l'apport nutritionnel quotidien moyen estimé pour cet individu.
(§6) On obtient ainsi un document décrivant les apports nutritionnels de 70 nutriments chez 288 individus.
(§7) Ces deux fichiers sont ainsi composés au final des données alimentaires de 288 individus. Au début de l'analyse, ont été supprimées les données de 2 individus qui sont des enfants de moins de 4 ans car à cet âge, leur microbiote est encore trop immature pour être représentatif des effets de l'alimentation sur leurs populations bactériennes. On utilise donc les données alimentaires de 286 individus pour les analyses de ce rapport.
(§8) Les résultats ayant servi à l'analyse du microbiote intestinal ont été générés en suivant le processus d'analyse du Dispositif Médical de Diagnostic In Vitro 1test1. En bref, les échantillons fécaux ont été prélevés avec un tube de collecte contenant un conservant afin de permettre le transport à température non controlée depuis l'utilisateur vers le laboratoire d'analyse (DNA/RNA Shield de Zymo Research). L'ADN a ensuite été extrait et le séquençage de la région v3-v4 ARN16s réalisé par le laboratoire IBBL au Luxembourg sur un séquenceur MiSeq d'Illumina selon le protocol en application (peut-être rajouter une référence publication). […]

[2] = test system: Faecalibacterium; test: as above; conditions: nutrient intake vs relative abundance of Faecalibacterium, whole cohort (215 individus)
Description: as §1, §2, §3, §4, §5, §6, §7, §8

[3] = test system: Clostridium_XVIII; test: as above; conditions: nutrient intake vs relative abundance of Clostridium_XVIII, whole cohort (215 individus)
Description: as §1, §2, §3, §4, §5, §6, §7, §8

[4] = test system: microbiote intestinal; test: Short-term colonic incubations (in vitro faecal fermentation, simplified SHIME) with faecal inocula of Parkinson and healthy donors; assay type: cell-based, humain; conditions: for pH (activité de fermentation): 0-48h
Description: Pour valider l'effet bénéfique des 5 nutriments d'intérêt sur le microbiote intestinal, une étude In Vitro a été réalisée sur des microbiotes reconstitués à partir de selles d'individus sains et de patients souffrant de la maladie de Parkinson. En particulier, l'effet bénéfique de l'apport de ces nutriments a été évalué à travers l'augmentation de la production de butyrate et d'acides gras à chaine courte en général, ainsi que les changements observés au niveau des métabolites.
Trois donneurs sains et deux donneurs atteints de la maladie de Parkinson ont été recrutés. Pour évaluer les effets de chacun des nutriments sur le microbiote intestinal des donneurs susmentionnés, des simulations coliques à court terme ont été effectuées. L'évaluation de chaque nutriment a été basée 1) sur les effets sur la fermentation microbienne globale (pH) et 2) sur l'activité métabolique microbienne (production de AGCC, de lactate et d'un panel d'environ 400 métabolites).
Les approches in vitro pour étudier le tractus gastro-intestinal et les processus microbiens intestinaux offrent une excellente configuration expérimentale pour étudier les processus qui se développent dans le microbiome intestinal humain. Le dépistage des effets de composés sélectionnés sur le microbiote intestinal peut être effectué au moyen d'une fermentation fécale réalisée dans un seul réacteur, ce qui permet d'évaluer la capacité de substrats spécifiques à moduler la composition et l'activité microbiennes intestinales. Ces expériences représentent une simulation simplifiée du Simulateur continu de l'écosystème microbien intestinal humain (SHIME®).
Les matières fécales ont été recueillies auprès de cinq donneurs (deux donneurs atteints de la maladie de Parkinson (PD) et trois donneurs sains (HD)).
Les matières fécales ont été recueillies dans des conteneurs anaérobies et conservées à la température du réfrigérateur jusqu'à un traitement ultérieur. Dans les 48 heures suivant la défécation, des suspensions fécales (15 % (p/v)) ont été préparées dans un tampon phosphate et mélangées dans un rapport 1 : 1 avec un cryoprotecteur optimisé en interne dans une chambre anaérobie. Les suspensions obtenues ont été immédiatement surgelées dans de l'azote liquide puis conservées à -80°C (cryostock). Juste avant l'expérience, les échantillons ont été décongelés et immédiatement ajoutés aux réacteurs, de sorte qu'un seul cycle de congélation-décongélation a été appliqué sur chaque inoculum individuel.
Un test de dépistage à court terme consiste généralement en une incubation colique d'une dose unique d'un composé d'essai dans des conditions représentatives du gros intestin proximal, en utilisant des inoculums bactériens provenant de donneurs sélectionnés comme sources microbiennes. Cinq traitements et une condition de référence (contrôle négatif) ont été testés par donneur. La composition du milieu dans le contrôle et les traitements est exactement la même, mais le contrôle ne contient pas l'ingrédient de test. Le contrôle est inclus pour déterminer les changements de base dans les différents paramètres étudiés (pH, production d'AGCC, lactate et métabolites liés à l'intestin) résultant de la fermentation des nutriments dans le milieu nutritionnel appauvri en glucides qui est introduit avec les ingrédients d'essai dans les réacteurs (voir ci-dessous), pour fournir des nutriments essentiels à la population microbienne. Chaque condition a été testée en une seule répétition chez cinq donneurs.
Un milieu nutritionnel appauvri en glucides (contenant les nutriments basaux du côlon) a été ajouté à chaque réacteur (y compris le contrôle), ainsi que 10 % (v/v) d'un inoculum fécal cryoconservé à 7,5 % (qui a servi de source microbienne) de chaque des cinq donneurs, portant le volume total dans les réacteurs à 70 mL. Des billes porteuses de mucine ont été incluses dans chaque réacteur, pour simuler la couche de mucus du côlon. […]

[5] = healthy individuals, vs control
[6] = two Parkinson patients, vs control

| Structure (SMILES) | corrélation [1] | corrélation ([1]; listed as bêta-carotène) | corrélation [2] | corrélation [3] | production de butyrate ([4]; Parkinson patients, vs control, added 10 mM butyrate taken into account) | production d'acétate [4, 5] | production de propionate [4, 5] | production de butyrate ([4]; healthy individuals, vs control (blank)) | pH (activité de fermentation) [4, 5] | production d'acétate [4, 6] | production de propionate [4, 6] | pH (activité de fermentation) [4, 6] |
| --- | --- | --- | --- | --- | --- | --- | --- | --- | --- | --- | --- | --- |
| CC1=C(/C=C/C(C)=C/C=C/C(C)=C/C=C/C=C(C)/C=C/C=C(C)/C=C/C2=C(C)CCCC2(C)C)C(C)(C)CCC1 [Beta-Carotène, bêta-carotène] | 0,14 | corrélation positive significative au seuil de 5% | 0,12 | 0,11 |  |  |  |  |  |  |  |  |
| CCC=CCC=CCC=CCC=CCC=CCC=CCCC(=O)O [DHA, acide docosahexaénoïque] |  |  |  | 0,11 and 0,10 |  |  |  |  |  |  |  |  |
| CCCC(=O)O [butyrate de sodium] |  |  |  |  | a fortement stimulé la production de butyrate; also recorded: a stimulé la production de butyrate dans la population parkinsonienne | concentrations d'acétate similaires à celles du contrôle | concentrations de propionate similaires à celles du contrôle | n'a pas stimulé la production de butyrate; also recorded: pas dans la population en bonne santé | baisses de pH les plus légères | concentrations d'acétate similaires à celles du contrôle | légers effets de stimulation | profils de pH similaires à ceux du contrôle |
